Our source for the IC50 values is ChEMBL document CHEMBL1141866, “Synthesis and evaluation of thiazole carboxamides as vanilloid receptor 1 (TRPV1) antagonists” (Bioorg Med Chem Lett, 2005).

The nature of experiment [1]: Ability to block capsaicin-induced calcium influx in rat-human chimera TRPV1 expressing CHO cells. The experiment is classed as cell-based.
A short description of experiment [2]: Ability to block acid-induced calcium influx in rat-human chimera TRPV1 expressing CHO cells. The class given is cell-based.

In general, IC50 refers to the concentration at which inhibition is half-maximal. Take `O=C(Nc1ccccc1)c1csc(Cc2c(Cl)cccc2Cl)n1`: the IC50 in experiment [1] and in experiment [2] was greater than 4000 nM throughout.

For the compound `CN(C)c1ccc(NC(=O)c2csc(Cc3c(Cl)cccc3Cl)n2)cc1`, the 50% inhibitory concentration (IC50) in experiment [1] is greater than 4000 nM; in experiment [2], 1270 nM.

As for `COc1ccc(NC(=O)c2csc(Cc3c(Cl)cccc3Cl)n2)cc1`, the IC50 in experiment [1] and in experiment [2] was greater than 4000 nM throughout.

Regarding `Cc1cccc(C)c1Nc1nc(C(=O)Nc2ccc(C(F)(F)F)cc2)cs1`, the IC50 in experiment [1] was 90 nM; in experiment [2] it was 82 nM.

Take `O=C(Nc1ccc(C(F)(F)F)cc1)c1csc(Nc2c(Cl)cncc2Cl)n1`: the results for the concentration for half-maximal inhibition (IC50) in experiment [1] and in experiment [2] were 360 nM and 880 nM, respectively.

Regarding `O=C(Nc1ccc(C(F)(F)F)cc1)c1csc(Nc2c(Cl)cccc2C(F)(F)F)n1`, the IC50 in experiment [1] and in experiment [2] was greater than 4000 nM throughout.

As for `Cc1nc(Cc2c(Cl)cccc2Cl)sc1C(=O)Nc1ccc(C(F)(F)F)cc1`, in experiment [2], the IC50 was greater than 4000 nM.

For `O=C(Nc1ccc(C(F)(F)F)nc1)c1csc(Cc2c(Cl)cccc2Cl)n1`, the IC50 in experiment [1] is 110 nM; in experiment [2], 130 nM.

Consider `O=C(Nc1cccc(Br)c1)c1csc(Cc2c(Cl)cccc2Cl)n1`, for which the IC50 in experiment [1] and in experiment [2] was greater than 4000 nM each time.

With `O=C(Nc1ccccc1Br)c1csc(Cc2c(Cl)cccc2Cl)n1`, the IC50 in experiment [1] and in experiment [2] was greater than 4000 nM each time.

For `O=C(Nc1ccc(C(F)(F)F)cc1)c1cnc(Cc2c(Cl)cccc2Cl)s1`, the figures for the IC50 in experiment [1] and in experiment [2] were 790 nM and 1780 nM, respectively.

Regarding `O=C(Nc1ccc(Br)cn1)c1csc(Cc2c(Cl)cccc2Cl)n1`, the concentration for half-maximal inhibition (IC50) in experiment [1] and in experiment [2] was greater than 4000 nM throughout.

`CC(C)c1ccc(NC(=O)c2csc(Cc3c(Cl)cccc3Cl)n2)cc1`: the 50% inhibitory concentration (IC50) was 370 nM in experiment [1] and 520 nM in experiment [2].

For the compound `COc1ccc(NC(=O)c2csc(Cc3c(Cl)cccc3Cl)n2)cn1`, the IC50 in experiment [1] and in experiment [2] was greater than 4000 nM throughout.

Consider `O=C(Nc1ccc(C(F)(F)F)cc1)c1c[nH]c(Cc2c(Cl)cccc2Cl)n1`, for which the concentration for half-maximal inhibition (IC50) in experiment [1] and in experiment [2] was 230 nM throughout.

In the case of `O=C(Nc1ccc(C(F)(F)F)cc1)c1csc(Nc2ccccc2Cl)n1`, the IC50 worked out at 1750 nM in experiment [1] and 1410 nM in experiment [2].

On to `CCc1ccc(NC(=O)c2csc(Cc3c(Cl)cccc3Cl)n2)cc1`, for which the 50% inhibitory concentration (IC50) in experiment [1] came out at 810 nM; in experiment [2], 1450 nM.

As to `O=C(Nc1ccc(C(F)(F)C(F)(F)F)cc1)c1csc(Cc2c(Cl)cccc2Cl)n1`, the concentration for half-maximal inhibition (IC50) in experiment [1] was 290 nM; in experiment [2] it was 350 nM.

Regarding `O=C(Nc1ccc(C(F)(F)F)cc1)c1coc(Cc2c(Cl)cccc2Cl)n1`, the results for the IC50 in experiment [1] and in experiment [2] were 62 nM and 200 nM, respectively.

`O=C(Nc1ccc(C(F)(F)F)cc1)c1csc(CCc2c(Cl)cccc2Cl)n1`: the IC50 in experiment [1] and in experiment [2] was greater than 4000 nM throughout.

With `O=C(Nc1ccc(C(F)(F)F)cc1)c1csc(Oc2c(Cl)cccc2Cl)n1`, the IC50 in experiment [1] stood at 870 nM; in experiment [2] it was 1280 nM.

As for `Cn1cc(C(=O)Nc2ccc(C(F)(F)F)cc2)nc1Cc1c(Cl)cccc1Cl`, the half-maximal inhibitory concentration (IC50) came out at 1010 nM in experiment [1] and 1020 nM in experiment [2].

As to `O=C(Nc1ccc(Br)cc1)c1csc(Cc2c(Cl)cccc2Cl)n1`, the 50% inhibitory concentration (IC50) in experiment [1] was found to be 400 nM; in experiment [2], 460 nM.

Consider `O=C(Nc1ccc(C(F)(F)F)cc1)c1csc(Nc2c(Cl)cccc2Cl)n1`, for which the IC50 in experiment [1] amounted to 51 nM; in experiment [2] it was 48 nM.

For `N#Cc1ccc(NC(=O)c2csc(Cc3c(Cl)cccc3Cl)n2)cc1`, the concentration for half-maximal inhibition (IC50) in experiment [1] was 450 nM; in experiment [2], 720 nM.

Take `O=C(Nc1ccc(C(F)(F)F)cc1)c1csc(Cc2c(Cl)cccc2Cl)n1`: in experiment [2], the IC50 was found to be 88 nM.

`CC(C)(C)c1ccc(NC(=O)c2csc(Cc3c(Cl)cccc3Cl)n2)cc1`: the IC50 in experiment [1] came to 570 nM; in experiment [2] it was 300 nM.

Take `O=C(Nc1ccc(C(F)(F)F)cc1)c1csc(-c2c(Cl)cccc2Cl)n1`: the half-maximal inhibitory concentration (IC50) in experiment [1] and in experiment [2] was greater than 4000 nM throughout.
